Measured values reported in ChEMBL document CHEMBL1909046, “DrugMatrix in vitro pharmacology data”.

Tests used:
[1] = target: Beta-1 adrenergic receptor (Homo sapiens, UniProt P08588); test: DRUGMATRIX: Adrenergic beta1 radioligand binding (ligand: [125I] Cyanopindolol); type: cell membranes, CHO-K1, Membrane; details: cho-k1; Not Active = under 50% inhibition at 10 µM
[2] = DRUGMATRIX: beta-Lactamase enzyme inhibition (substrate: Nitrocefin); design: species or system Bacillus cereus; details: Not Active = under 50% inhibition at 10 µM
[3] = DRUGMATRIX: Calcium Channel Type L, Dihydropyridine radioligand binding (ligand: [3H] Nitrendipine); type: cell membranes, Rattus norvegicus, Wistar, Cerebral cortex, Membrane; details: Not Active = under 50% inhibition at 10 µM
[4] = target: T1, Vasoactive intestinal polypeptide receptor 1 (Homo sapiens, UniProt P32241); type: cell membranes, Membrane; details: ht-29; further: in other assays of this panel Not Active means under 50% inhibition at 10 µM
T1 sequence (P32241 whole entry): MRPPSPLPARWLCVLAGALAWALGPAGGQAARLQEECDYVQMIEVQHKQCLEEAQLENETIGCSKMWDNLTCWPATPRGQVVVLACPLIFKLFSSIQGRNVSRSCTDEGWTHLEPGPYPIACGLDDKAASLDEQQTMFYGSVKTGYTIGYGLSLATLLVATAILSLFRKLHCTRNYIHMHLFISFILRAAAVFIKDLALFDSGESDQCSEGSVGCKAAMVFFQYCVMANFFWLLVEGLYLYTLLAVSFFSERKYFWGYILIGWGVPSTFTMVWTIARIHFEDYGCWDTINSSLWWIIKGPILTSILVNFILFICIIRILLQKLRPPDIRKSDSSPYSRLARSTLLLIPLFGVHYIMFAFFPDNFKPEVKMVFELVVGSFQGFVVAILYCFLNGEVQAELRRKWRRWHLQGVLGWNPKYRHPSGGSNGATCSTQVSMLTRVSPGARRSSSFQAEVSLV

[5] = target: T2, C-C chemokine receptor type 4 (Homo sapiens, UniProt P51679); type: cell membranes, Membrane; details: chem-1; further: in other assays of this panel Not Active means under 50% inhibition at 10 µM
T2 sequence (P51679 whole entry): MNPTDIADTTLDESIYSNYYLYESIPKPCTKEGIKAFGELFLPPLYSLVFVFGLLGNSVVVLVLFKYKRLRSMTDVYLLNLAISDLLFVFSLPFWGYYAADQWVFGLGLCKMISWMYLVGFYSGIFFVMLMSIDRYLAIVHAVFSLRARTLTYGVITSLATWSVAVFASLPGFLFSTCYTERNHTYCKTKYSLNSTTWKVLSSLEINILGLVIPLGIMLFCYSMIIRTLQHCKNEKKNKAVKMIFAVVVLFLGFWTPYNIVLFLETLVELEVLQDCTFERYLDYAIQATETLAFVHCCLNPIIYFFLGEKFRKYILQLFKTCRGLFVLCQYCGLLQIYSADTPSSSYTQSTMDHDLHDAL

[6] = target: Prostaglandin G/H synthase 1 (Homo sapiens, UniProt P23219); test: biochemical; type: tissue-based, Platelet; details: platelet;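 further: inhibition of COX-1 enzyme activity, with arachidonic acid supplied as substrate; in other assays of this panel Not Active means under 50% inhibition at 10 µM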
[7] = DRUGMATRIX: Interleukin IL-1 radioligand binding (ligand: [125I] interleukin 1beta); type: cell membranes, Membrane; details: nih3t3; Not Active = under 50% inhibition at 10 µM
[8] = DRUGMATRIX: Leukotriene, BLT (LTB4) radioligand binding (ligand: [3H]LTB4); type: cell membranes, Membrane; details: u-937; Not Active = under 50% inhibition at 10 µM
Melanocortin receptor 3 = Melanocortin receptor 3 (Homo sapiens, UniProt P41968); type: cell membranes, Membrane; details: hek293; further: in other assays of this panel Not Active means under 50% inhibition at 10 µM
Melanocortin receptor 5 = Melanocortin receptor 5 (Homo sapiens, UniProt P33032); type: cell membranes, HEK293, Membrane; details: hek293; further: in other assays of this panel Not Active means under 50% inhibition at 10 µM
[9] = target: T3, Neuropeptide Y receptor type 1 (Homo sapiens, UniProt P25929); type: cell membranes, Membrane; details: sk-n-mc; further: in other assays of this panel Not Active means under 50% inhibition at 10 µM
T3 sequence (P25929 whole entry): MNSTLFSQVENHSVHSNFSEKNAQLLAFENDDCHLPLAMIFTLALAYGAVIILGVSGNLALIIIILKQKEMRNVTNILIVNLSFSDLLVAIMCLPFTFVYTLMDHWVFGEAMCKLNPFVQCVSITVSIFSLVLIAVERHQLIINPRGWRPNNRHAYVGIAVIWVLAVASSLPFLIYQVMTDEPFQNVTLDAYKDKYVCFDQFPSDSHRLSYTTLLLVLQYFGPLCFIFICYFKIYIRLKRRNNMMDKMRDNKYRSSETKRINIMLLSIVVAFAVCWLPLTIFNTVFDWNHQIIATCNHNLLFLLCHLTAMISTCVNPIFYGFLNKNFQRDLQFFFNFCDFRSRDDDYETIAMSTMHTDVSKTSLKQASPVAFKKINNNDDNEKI

[10] = target: Delta-type opioid receptor (Homo sapiens, UniProt P41143); type: cell membranes, HEK293, Membrane; details: hek293; further: in other assays of this panel Not Active means under 50% inhibition at 10 µM
Progesterone receptor = target: T4, Progesterone receptor (Bos taurus, UniProt Q690N0); test: DRUGMATRIX: Progesterone radioligand binding (ligand: [3H] R-5020); type: tissue-based, Uterus; details: Not Active = under 50% inhibition at 10 µM
T4 sequence (Q690N0 whole entry): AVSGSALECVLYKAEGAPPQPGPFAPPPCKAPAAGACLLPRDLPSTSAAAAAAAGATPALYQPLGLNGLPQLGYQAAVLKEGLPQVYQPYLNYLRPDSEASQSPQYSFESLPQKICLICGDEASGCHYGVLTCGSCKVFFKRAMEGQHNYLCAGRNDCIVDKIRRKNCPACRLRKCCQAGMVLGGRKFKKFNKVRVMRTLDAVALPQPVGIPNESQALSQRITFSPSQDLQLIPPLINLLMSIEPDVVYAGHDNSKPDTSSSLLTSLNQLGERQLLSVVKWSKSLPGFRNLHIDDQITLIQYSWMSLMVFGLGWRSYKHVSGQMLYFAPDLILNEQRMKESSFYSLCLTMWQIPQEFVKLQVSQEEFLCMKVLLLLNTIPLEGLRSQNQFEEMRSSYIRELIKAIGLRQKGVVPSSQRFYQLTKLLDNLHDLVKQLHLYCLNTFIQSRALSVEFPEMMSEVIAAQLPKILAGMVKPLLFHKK

[11] = target: T5, 5-hydroxytryptamine receptor 1A (Rattus norvegicus, UniProt P19327); type: cell membranes, CHO-K1, Membrane; details: cho-k1; further: in other assays of this panel Not Active means under 50% inhibition at 10 µM
T5 sequence (P19327 whole entry): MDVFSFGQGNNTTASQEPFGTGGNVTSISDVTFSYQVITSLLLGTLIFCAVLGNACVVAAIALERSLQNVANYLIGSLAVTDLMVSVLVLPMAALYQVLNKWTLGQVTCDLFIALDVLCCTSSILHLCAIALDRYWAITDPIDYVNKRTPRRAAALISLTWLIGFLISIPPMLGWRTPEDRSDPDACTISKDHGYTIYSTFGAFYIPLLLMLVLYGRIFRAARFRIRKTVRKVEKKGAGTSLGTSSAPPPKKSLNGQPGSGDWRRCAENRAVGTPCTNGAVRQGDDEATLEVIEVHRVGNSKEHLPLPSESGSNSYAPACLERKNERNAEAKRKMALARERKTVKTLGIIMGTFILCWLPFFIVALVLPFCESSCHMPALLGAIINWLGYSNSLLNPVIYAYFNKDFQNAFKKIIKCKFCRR

Melanocortin receptor 5, sequence (P33032 whole entry): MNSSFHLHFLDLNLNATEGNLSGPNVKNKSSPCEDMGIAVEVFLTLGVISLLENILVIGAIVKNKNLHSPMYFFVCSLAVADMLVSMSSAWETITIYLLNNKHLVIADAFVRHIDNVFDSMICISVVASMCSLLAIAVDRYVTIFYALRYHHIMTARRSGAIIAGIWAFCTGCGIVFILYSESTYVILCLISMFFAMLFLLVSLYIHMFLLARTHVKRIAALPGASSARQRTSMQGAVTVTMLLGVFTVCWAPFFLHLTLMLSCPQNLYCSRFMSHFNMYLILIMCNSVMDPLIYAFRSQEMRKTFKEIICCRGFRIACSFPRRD
Delta-type opioid receptor, sequence (P41143 whole entry): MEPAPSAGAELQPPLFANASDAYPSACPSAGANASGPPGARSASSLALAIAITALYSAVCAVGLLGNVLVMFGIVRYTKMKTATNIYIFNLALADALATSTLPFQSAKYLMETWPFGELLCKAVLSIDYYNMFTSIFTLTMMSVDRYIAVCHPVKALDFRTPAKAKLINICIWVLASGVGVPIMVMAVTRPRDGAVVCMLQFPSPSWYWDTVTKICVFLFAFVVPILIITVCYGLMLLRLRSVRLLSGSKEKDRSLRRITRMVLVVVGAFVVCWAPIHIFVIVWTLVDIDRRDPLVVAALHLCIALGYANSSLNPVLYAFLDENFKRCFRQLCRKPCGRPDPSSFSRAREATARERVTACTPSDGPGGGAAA
Beta-1 adrenergic receptor, sequence (P08588 whole entry): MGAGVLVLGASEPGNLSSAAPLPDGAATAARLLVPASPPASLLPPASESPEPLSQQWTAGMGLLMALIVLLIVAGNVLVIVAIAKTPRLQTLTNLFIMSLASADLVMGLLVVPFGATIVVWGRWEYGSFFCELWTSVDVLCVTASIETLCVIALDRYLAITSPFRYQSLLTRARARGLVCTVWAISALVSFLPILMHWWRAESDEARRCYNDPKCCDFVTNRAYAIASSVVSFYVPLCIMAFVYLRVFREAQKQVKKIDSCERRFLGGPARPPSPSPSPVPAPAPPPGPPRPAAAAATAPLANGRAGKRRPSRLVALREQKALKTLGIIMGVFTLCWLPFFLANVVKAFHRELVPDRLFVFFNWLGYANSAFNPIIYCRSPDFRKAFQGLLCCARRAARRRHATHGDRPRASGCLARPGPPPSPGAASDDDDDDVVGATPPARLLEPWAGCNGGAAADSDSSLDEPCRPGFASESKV
Prostaglandin G/H synthase 1, sequence (P23219 whole entry): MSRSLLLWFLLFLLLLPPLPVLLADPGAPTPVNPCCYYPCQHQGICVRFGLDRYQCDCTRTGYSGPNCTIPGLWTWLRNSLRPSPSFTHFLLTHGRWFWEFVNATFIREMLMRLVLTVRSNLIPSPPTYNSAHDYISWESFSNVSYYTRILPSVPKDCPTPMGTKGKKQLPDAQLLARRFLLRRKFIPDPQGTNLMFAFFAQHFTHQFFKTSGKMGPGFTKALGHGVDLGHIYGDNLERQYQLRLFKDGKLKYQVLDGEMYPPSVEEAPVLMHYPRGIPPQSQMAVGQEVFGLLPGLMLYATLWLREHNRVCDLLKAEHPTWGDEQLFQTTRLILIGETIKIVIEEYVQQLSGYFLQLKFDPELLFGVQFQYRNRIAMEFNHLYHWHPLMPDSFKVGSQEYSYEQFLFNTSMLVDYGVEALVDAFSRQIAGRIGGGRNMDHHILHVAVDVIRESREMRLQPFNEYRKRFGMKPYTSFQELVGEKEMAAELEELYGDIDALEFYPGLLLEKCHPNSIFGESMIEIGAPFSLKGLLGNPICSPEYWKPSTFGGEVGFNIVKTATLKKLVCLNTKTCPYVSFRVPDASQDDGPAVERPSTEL
Melanocortin receptor 3, sequence (P41968 whole entry): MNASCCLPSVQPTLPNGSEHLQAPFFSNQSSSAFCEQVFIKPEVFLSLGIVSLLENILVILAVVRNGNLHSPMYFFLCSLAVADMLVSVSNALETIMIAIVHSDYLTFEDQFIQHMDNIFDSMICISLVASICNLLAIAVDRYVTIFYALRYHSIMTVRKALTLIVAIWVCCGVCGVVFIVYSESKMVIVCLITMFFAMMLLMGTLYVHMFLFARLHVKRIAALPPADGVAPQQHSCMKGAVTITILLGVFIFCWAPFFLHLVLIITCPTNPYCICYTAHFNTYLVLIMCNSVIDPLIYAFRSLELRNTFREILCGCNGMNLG

CC(C)(C)NC(=O)[C@@H]1CN(Cc2cccnc2)CCN1C[C@@H](O)C[C@@H](Cc1ccccc1)C(=O)N[C@H]1c2ccccc2C[C@H]1O.O
Not Active: IC50 [1] | IC50 [2] | Ki [2] | IC50 [3] | Ki [3] | IC50 [4] | IC50 [5] | IC50 [6] | IC50 [7] | Ki [7] | IC50 [8] | Ki [8] | IC50 (Melanocortin receptor 3) | IC50 (Melanocortin receptor 5) | IC50 [9] | IC50 [10] | IC50 (Progesterone receptor) | IC50 [11]

Clc1ccc(C(c2ccccc2Cl)C(Cl)Cl)cc1 (stereo not given) [MITOTANE]
Not Active: IC50 [1] | IC50 [2] | Ki [2] | IC50 [3] | Ki [3] | IC50 [4] | IC50 [5] | IC50 [6] | IC50 [7] | Ki [7] | IC50 [8] | Ki [8] | IC50 (Melanocortin receptor 3) | IC50 (Melanocortin receptor 5) | IC50 [9] | IC50 [10] | IC50 (Progesterone receptor) | IC50 [11]

Oc1c(I)cc(I)c2cccnc12 [IODOQUINOL]
Not Active: IC50 [1] | IC50 [2] | Ki [2] | IC50 [3] | Ki [3] | IC50 [4] | IC50 [5] | IC50 [6] | IC50 [7] | Ki [7] | IC50 [8] | Ki [8] | IC50 (Melanocortin receptor 3) | IC50 (Melanocortin receptor 5) | IC50 [9] | IC50 [10] | IC50 (Progesterone receptor) | IC50 [11]

CN[C@@H]1[C@@H](O)[C@@H](O[C@@H]2[C@@H](O)[C@H](O[C@H]3OC(CN)=CC[C@H]3N)[C@@H](N)C[C@H]2N)OC[C@]1(C)O [SISOMICIN]
Not Active: IC50 [1] | IC50 [2] | Ki [2] | IC50 [3] | Ki [3] | IC50 [4] | IC50 [5] | IC50 [6] | IC50 [7] | Ki [7] | IC50 [8] | Ki [8] | IC50 (Melanocortin receptor 3) | IC50 (Melanocortin receptor 5) | IC50 [9] | IC50 [10] | IC50 (Progesterone receptor) | IC50 [11]

NNc1ccccc1 [PHENYLHYDRAZINE]
Not Active: IC50 [1] | IC50 [2] | Ki [2] | IC50 [3] | Ki [3] | IC50 [4] | IC50 [5] | IC50 [6] | IC50 [7] | Ki [7] | IC50 [8] | Ki [8] | IC50 (Melanocortin receptor 3) | IC50 (Melanocortin receptor 5) | IC50 [9] | IC50 [10] | IC50 (Progesterone receptor) | IC50 [11]
